Measured values from patent publication US9878986B2, “Compounds for selective histone deacetylase inhibitors, and pharmaceutical composition comprising the same” (CHONG KUN DANG PHARMACEUTICAL CORP., priority 2013, dated 2018).

How the values were obtained:
HDAC 2 = target: T1, HDAC 2 (Homo sapiens, UniProt Q92769); test: HDAC panel by Reaction Biology Corp., HDAC 2; assay type: biochemical; conditions: read-out: HDAC inhibitory activities, HDAC 2
T1 construct: Reaction Biology Corp
Excerpt: (§1) The inhibitory activities of Compounds 255 and 374 on all HDACs were confirmed (by Reaction Biology Corp.).

HDAC 8 = target: T2, HDAC 8 (Homo sapiens, UniProt Q9BY41); test: HDAC panel by Reaction Biology Corp., HDAC 8; assay type: biochemical; conditions: read-out: HDAC inhibitory activities, HDAC 8
T2 construct: Reaction Biology Corp
T2 sequence (Q9BY41 1-377): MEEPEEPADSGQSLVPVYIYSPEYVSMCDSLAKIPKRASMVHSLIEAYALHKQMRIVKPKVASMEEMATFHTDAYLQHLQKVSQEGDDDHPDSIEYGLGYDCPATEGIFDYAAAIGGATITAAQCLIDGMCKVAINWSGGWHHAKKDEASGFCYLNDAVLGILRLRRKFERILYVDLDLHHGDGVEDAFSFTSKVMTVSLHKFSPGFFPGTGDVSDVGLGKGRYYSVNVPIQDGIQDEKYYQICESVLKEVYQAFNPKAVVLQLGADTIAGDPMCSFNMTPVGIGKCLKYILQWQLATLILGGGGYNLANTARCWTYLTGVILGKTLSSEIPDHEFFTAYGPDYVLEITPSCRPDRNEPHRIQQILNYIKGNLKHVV
Excerpt: as §1

HDAC 9 = target: T3, HDAC 9 (Homo sapiens, UniProt Q9UKV0); test: HDAC panel by Reaction Biology Corp., HDAC 9; assay type: biochemical; conditions: read-out: HDAC inhibitory activities, HDAC 9
T3 construct: Reaction Biology Corp
T3 sequence (Q9UKV0 whole entry): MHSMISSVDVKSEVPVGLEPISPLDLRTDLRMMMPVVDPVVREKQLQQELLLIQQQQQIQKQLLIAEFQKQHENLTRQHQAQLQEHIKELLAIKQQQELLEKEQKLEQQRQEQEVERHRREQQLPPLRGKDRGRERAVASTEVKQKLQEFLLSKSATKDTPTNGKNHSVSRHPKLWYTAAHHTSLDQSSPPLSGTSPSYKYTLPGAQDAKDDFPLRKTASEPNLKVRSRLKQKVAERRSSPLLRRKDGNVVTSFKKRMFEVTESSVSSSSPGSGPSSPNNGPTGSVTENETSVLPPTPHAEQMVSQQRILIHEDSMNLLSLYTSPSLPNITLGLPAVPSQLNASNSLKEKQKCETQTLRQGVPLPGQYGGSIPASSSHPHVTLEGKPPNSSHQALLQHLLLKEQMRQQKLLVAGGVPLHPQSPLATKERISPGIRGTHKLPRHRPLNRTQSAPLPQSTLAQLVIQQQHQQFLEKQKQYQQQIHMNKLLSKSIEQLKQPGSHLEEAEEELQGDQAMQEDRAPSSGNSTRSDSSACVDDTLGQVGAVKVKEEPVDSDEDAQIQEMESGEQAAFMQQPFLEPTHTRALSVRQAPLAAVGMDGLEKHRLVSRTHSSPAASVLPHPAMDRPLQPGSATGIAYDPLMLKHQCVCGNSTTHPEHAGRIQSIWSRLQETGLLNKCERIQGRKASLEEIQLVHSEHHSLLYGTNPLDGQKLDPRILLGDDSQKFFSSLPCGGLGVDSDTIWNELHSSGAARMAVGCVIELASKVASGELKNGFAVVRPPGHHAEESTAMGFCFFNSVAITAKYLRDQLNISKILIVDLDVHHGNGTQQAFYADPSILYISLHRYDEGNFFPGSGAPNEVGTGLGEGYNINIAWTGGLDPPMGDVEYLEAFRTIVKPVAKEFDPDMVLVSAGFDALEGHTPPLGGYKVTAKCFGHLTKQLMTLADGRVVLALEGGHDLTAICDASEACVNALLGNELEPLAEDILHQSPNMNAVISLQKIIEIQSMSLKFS
Excerpt: as §1

[1] = system: collagen-induced arthritis models; test: Collagen-induced arthritis models; assay type: in vivo, DBA/1J mice; conditions: for arthritis symptoms improved by: versus vehicle group
Experimental: An emulsion was prepared by mixing bovine collagen type II (Chondrex) and complete Freund's adjuvant (Chondrex) at a ratio of 1:1 until the […] using a 1 ml pipette. Each 100 μL of emulsion was intradermally injected into the tail of DBA/1J mice for the first immunization. After 21 days, an emulsion was prepared by mixing bovine collagen type II and incomplete Freund's adjuvant (Chondrex) at a ratio of 1:1 by the same method as above. Each of 100 μL of emulsion was intradermally injected into the upper part of the tail of DBA/1J mice for the second boosting immunization. After the second boosting immunization, the mice were grouped according to body weight, the test drug was administered to each group, and the effects of the test drugs were measured by measuring the clinical score and the body weight. The clinical scores were assigned from 0 to 4, and the total clinical score was determined by evaluating the feet of each mouse and summing up the scores (normal: 0, most severe edema: 16). That is, the efficacy in the arthritis models was evaluated with the severity of edema of the joint, and a higher score was assigned to more severe edema.

[2] = system: adjuvant-induced arthritis models; test: Adjuvant-induced arthritis models; assay type: in vivo, Lewis rat; conditions: for clinical score: intraperitoneally, score 0 to 16; for arthritis symptoms improved by: 3, 10 and 30 mg/kg twice a day, versus vehicle group; for efficacy compared with the control compound Tofacitinib: clinical score
Experimental: Complete Freund's Adjuvant (Chondrex) containing 10 mg/mL Heat killed mycobacteria toxin was sufficiently mixed, and then 100 μL was taken and intradermally injected into the upper part of the tail of Lewis rat to induce arthritis. After 10 days, the length of the ankle circumference of rats was measured, and then the rats were grouped and used in the experiment. Each compound was intraperitoneally injected twice a day. The clinical score, the length of the ankle circumference, and the weight were measured twice a week after the administration of the compounds. The clinical scores were assigned from 0 to 4 based on the thesis of Woods, etc. (J. Immunology, 1214-1222, 2001), and the total clinical score was determined by evaluating the feet of each rat and summing up the scores (normal: 0, most severe edema: 16). The length of the ankle circumference was calculated based on the formula of 2×3.14(√(a^2+b^2/2)) after measuring top-bottom sides (a) of the foot and lateral sides (b) of the foot. The final value was determined by averaging the calculated values of each foot.

RPMI 8226 cells = test: Combination index for combination treatment with Velcade (MTT cell viability); assay type: cell-based
Experimental: RPMI 8226 cells were seeded in 96-well U-bottom plate at 3×10^5 cells/ml in 180 μl per well, and 20 μl of test material was added to the plate. The cells were incubated in a 37° C. humidified 5% CO2 incubator for 48 hours, and each 20 μl of 5 mg/ml 2-(4,5-dimethylthiazol-2-yl)-2,5-diphenyltetrazolium bromide (MTT) solution dissolved in PBS was added and incubated again for 4 hours. After the formation of formazan, the medium was completely removed, 200 μl of DMSO was added, and then the absorbance was measured using a microplate reader at 570 nm.
For the quantitative analysis of drug interaction between the novel urea compounds of the present invention and Velcade (BOZ) well known as a therapeutic agent for multiple myeloma, the combination index (CI) of cell fractions on cytotoxicity caused by the drugs was calculated based on the dose-response curve of single and combination treatments. For the analysis of the interaction between two drugs, the CI was measured using Compusyn software (Combosyn Inc.) according to the method of Chou and Talalay (CompuSyn by Ting-Chao Chou and Nick Martin, 2005). The CI is the dose ratio of two anticancer agents treated with the dose of two anticancers at the point representing the equivalent cytotoxic effects. CI<1, CI=1, and CI>1 are interpreted as synergism, additivity, and antagonism, respectively.

[3] = Compound 255 0.25 μM + BOZ (Velcade) 2.5 nM
[4] = Compound 255 0.25 μM + BOZ (Velcade) 5.0 nM
[5] = Compound 255 0.25 μM + BOZ (Velcade) 10.0 nM
[6] = Compound 255 0.5 μM + BOZ (Velcade) 2.5 nM
[7] = Compound 255 0.5 μM + BOZ (Velcade) 5.0 nM
[8] = Compound 255 0.5 μM + BOZ (Velcade) 10.0 nM
[9] = Compound 255 1.0 μM + BOZ (Velcade) 2.5 nM
[10] = Compound 255 1.0 μM + BOZ (Velcade) 5.0 nM
[11] = Compound 255 1.0 μM + BOZ (Velcade) 10.0 nM

T1 sequence (Q92769 whole entry): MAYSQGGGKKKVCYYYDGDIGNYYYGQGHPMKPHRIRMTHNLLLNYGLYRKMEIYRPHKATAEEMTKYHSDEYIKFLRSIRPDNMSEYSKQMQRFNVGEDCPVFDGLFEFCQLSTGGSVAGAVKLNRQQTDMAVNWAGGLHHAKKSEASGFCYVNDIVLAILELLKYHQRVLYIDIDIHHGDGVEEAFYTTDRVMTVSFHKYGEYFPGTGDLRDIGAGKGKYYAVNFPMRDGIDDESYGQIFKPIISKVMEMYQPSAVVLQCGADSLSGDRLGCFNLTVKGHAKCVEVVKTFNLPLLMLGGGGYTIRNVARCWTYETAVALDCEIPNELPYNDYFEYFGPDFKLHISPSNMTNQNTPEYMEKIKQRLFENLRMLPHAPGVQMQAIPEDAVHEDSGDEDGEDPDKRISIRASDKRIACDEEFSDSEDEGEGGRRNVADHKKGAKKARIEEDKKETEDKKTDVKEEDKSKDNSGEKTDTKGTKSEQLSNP

O=C(NO)c1ccc(CN(C(=O)N2CCOCC2)c2cccc(Br)c2)cc1 [Compound 255, N-(3-bromophenyl)-N-(4-(hydroxycarbamoyl)benzyl)morpholine-4-carboxamide]
IC50 (HDAC 2): 690 nM | IC50 (HDAC 8): 650 nM | IC50 (HDAC 9): 3520 nM | clinical score ([1]; 10 mg/kg twice a day, score 0 to 16, vehicle group 11.6): 5.2 | clinical score ([1]; 30 mg/kg twice a day, score 0 to 16, vehicle group 11.6): 6.5 | arthritis symptoms improved by ([1]; 10 and 30 mg/kg twice a day): more than 50% | clinical score ([2]; 3 mg/kg twice a day): 3.0 | clinical score ([2]; 10 mg/kg twice a day): 2.6 | clinical score ([2]; 30 mg/kg twice a day): 0.7 | arthritis symptoms improved by [2]: 40 to 90% | efficacy compared with the control compound Tofacitinib [2]: equivalent efficacy | CI (1) (RPMI 8226 cells; [3]): 1.182 | CI (2) (RPMI 8226 cells; [3]): 1.034 | CI (3) (RPMI 8226 cells; [3]): 1.068 | CI (1) (RPMI 8226 cells; [4]): 0.560 | CI (2) (RPMI 8226 cells; [4]): 0.710 | CI (3) (RPMI 8226 cells; [4]): 0.737 | CI (1) (RPMI 8226 cells; [5]): 0.482 | CI (2) (RPMI 8226 cells; [5]): 0.309 | CI (3) (RPMI 8226 cells; [5]): 0.417 | CI (1) (RPMI 8226 cells; [6]): 1.120 | CI (2) (RPMI 8226 cells; [6]): 1.115 | CI (3) (RPMI 8226 cells; [6]): 1.087 | CI (1) (RPMI 8226 cells; [7]): 0.751 | CI (2) (RPMI 8226 cells; [7]): 0.789 | CI (3) (RPMI 8226 cells; [7]): 0.727 | CI (1) (RPMI 8226 cells; [8]): 0.491 | CI (2) (RPMI 8226 cells; [8]): 0.529 | CI (3) (RPMI 8226 cells; [8]): 0.428 | CI (1) (RPMI 8226 cells; [9]): 0.940 | CI (2) (RPMI 8226 cells; [9]): 1.146 | CI (3) (RPMI 8226 cells; [9]): 0.998 | CI (1) (RPMI 8226 cells; [10]): 0.469 | CI (2) (RPMI 8226 cells; [10]): 0.679 | CI (3) (RPMI 8226 cells; [10]): 0.475 | CI (1) (RPMI 8226 cells; [11]): 0.416 | CI (2) (RPMI 8226 cells; [11]): 0.518 | CI (3) (RPMI 8226 cells; [11]): 0.417 | combination effect with Velcade (BOZ) (RPMI 8226 cells; judged by the combination index): combination effect is excellent

O=C(NO)c1ccc(CN(C(=O)N2CCOCC2)c2cccc(C(F)(F)F)c2)cc1 [Compound 374, N-(4-(hydroxycarbamoyl)benzyl)-N-(3-(trifluoromethyl)phenyl)morpholine-4-carboxamide]
IC50 (HDAC 2): 4880 nM | IC50 (HDAC 8): 2070 nM | IC50 (HDAC 9): 10300 nM | arthritis symptoms improved by ([1]; different concentrations (doses not given)): more than 60% | clinical score ([1]; different concentrations, first value listed (dose not given), vehicle group 6.7): 2.8 | clinical score ([1]; different concentrations, second value listed (dose not given), vehicle group 6.7): 2.5 | clinical score ([2]; 3 mg/kg twice a day): 2.5 | clinical score ([2]; 10 mg/kg twice a day): 0.8 | clinical score ([2]; 30 mg/kg twice a day): 1.3 | arthritis symptoms improved by [2]: 70 to 90% | efficacy compared with the control compound Tofacitinib [2]: equivalent efficacy
